The results in this text go back to publication PMC7689250, “Synthetic Peptide Libraries Designed From a Minimal Alpha-Helical Domain of AS-48-Bacteriocin Homologs Exhibit Potent Antibacterial Activity” (Frontiers in Microbiology, 2020).

Residues, ends and D or L forms follow the SMILES beside them.

The test system of one series is S. aureus (USA300). The series is classed as cell-based, Staphylococcus aureus. Particulars: for MBC: USA300; for MIC: USA300, 16 h. Summed up: (§1)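 MIC in Mueller-Hinton broth with 1 × 10^6 CFU/mL bacteria, overnight cultures grown first in LB (E. coli, P. aeruginosa, S. aureus) or Todd-Hewitt (S. pyogenes); growth read as OD 600. Library members screened at half the parent peptide MIC; MBC as lowest concentration giving no colonies after plating MIC wells, 37°C overnight.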

For a further series, the system named is E. coli (BL21). The series is classed as cell-based, Escherichia coli. Particulars: for MBC: BL21; for MIC: BL21, 16 h. Summed up:
as §1

In the next series the test system is sheep erythrocytes. The series is classed as cell-based. Particulars: red cells of sheep, 1 h. As to the method:
To determine if peptide variants were hemolytic, fresh defibrinated whole sheep blood (Hardy Diagnostics) was washed three times in cold PBS, and washed blood was diluted 1:25 in PBS. Treatments were applied at a 1:10 ratio of sample:blood, where the sample was either 10% Triton, PBS, or a specific peptide concentration corresponding to concentrations used in the MIC assays. Treatments were incubated with the blood for 1 h at 37°C. Following incubation, samples were centrifuged at […] for 10 min at 4°C, and the absorbance of the supernatants at 450 nm was measured on the Synergy H1 Microplate Reader to measure the release of hemoglobin. Percent hemolysis was quantified by normalizing to the negative and positive controls.

A further series concerns S. pyogenes (M1). In kind it is cell-based, Streptococcus pyogenes. Particulars: for MBC: M1; for MIC: M1, 16 h. Summed up: as §1
Another series relates to P. aeruginosa (PAO1). In kind it is cell-based, Pseudomonas aeruginosa. The note with it: for MBC: PAO1; for MIC: PAO1, 16 h. A digest of the protocol:
as §1

Take `CC[C@H](C)[C@H](NC(=O)[C@H](CCC(=O)O)NC(=O)[C@H](CCCNC(=N)N)NC(=O)[C@H](CCCNC(=N)N)NC(=O)[C@H](CC(C)C)NC(=O)[C@H](Cc1ccc(O)cc1)NC(=O)[C@H](CCCCN)NC(=O)[C@H](C)NC(=O)[C@@H](NC(=O)[C@@H](NC(=O)[C@H](CCC(N)=O)NC(=O)[C@H](CCCNC(=N)N)NC(=O)[C@H](Cc1c[nH]c2ccccc12)NC(=O)[C@H](C)N)[C@@H](C)O)[C@@H](C)CC)C(=O)N[C@@H](CCCNC(=N)N)C(=O)N[C@@H](CCCCN)C(=O)N[C@@H](CCCNC(=N)N)C(=O)NCC(=O)N[C@@H](CCCNC(=N)N)C(=O)N[C@@H](CCCCN)C(=O)N[C@@H](C)C(=O)N[C@H](C(=O)N[C@H](C(=O)N[C@@H](C)C(=O)N[C@@H](Cc1c[nH]c2ccccc12)C(=O)O)[C@@H](C)CC)C(C)C` [Syn-sordellicin-18] (H-AWRQTIAKYLRREIRKRGRKAVIAW-OH; N-terminus and C-terminus assumed): the minimal bactericidal concentration (MBC) in the series with S. aureus (USA300) came to 32 µM; in the series with E. coli (BL21), 1 µM; in the series with S. pyogenes (M1) it was 4 µM; with P. aeruginosa (PAO1) it was 8 µM. Also, the MIC with S. aureus (USA300) is 32 µM; with E. coli (BL21), 1 µM; with S. pyogenes (M1), 4 µM; in the series with P. aeruginosa (PAO1) it was 4 µM. In the series with sheep erythrocytes, the “Percent Hemolysis” value was 14.1%.
Take `CC[C@H](C)[C@H](NC(=O)[C@H](Cc1c[nH]c2ccccc12)NC(=O)[C@H](CCC(N)=O)NC(=O)[C@H](CCCNC(=N)N)NC(=O)CNC(=O)[C@H](C)N)C(=O)N[C@@H](CCCCN)C(=O)N[C@@H](C)C(=O)N[C@@H](Cc1ccc(O)cc1)C(=O)N[C@@H](CC(C)C)C(=O)N[C@@H](CCCNC(=N)N)C(=O)N[C@@H](CCCNC(=N)N)C(=O)N[C@@H](CCC(=O)O)C(=O)N[C@H](C(=O)N[C@@H](CCCNC(=N)N)C(=O)N[C@@H](CCCCN)C(=O)N[C@@H](CCCNC(=N)N)C(=O)NCC(=O)N[C@@H](CCCNC(=N)N)C(=O)N[C@@H](CCCCN)C(=O)N[C@@H](C)C(=O)N[C@H](C(=O)N[C@H](C(=O)N[C@@H](C)C(=O)N[C@@H](Cc1c[nH]c2ccccc12)C(=O)O)[C@@H](C)CC)C(C)C)[C@@H](C)CC` [Syn-sordellicin-41] (H-AGRQWIKAYLRREIRKRGRKAVIAW-OH; N-terminus and C-terminus assumed): the MBC is more than 128 µM in the series on S. aureus (USA300), 2 µM in the series on E. coli (BL21), 4 µM with S. pyogenes (M1) and 16 µM in the series on P. aeruginosa (PAO1). Also, the MIC is more than 128 µM with S. aureus (USA300), 2 µM in the series on E. coli (BL21), 2 µM in the series with S. pyogenes (M1) and 16 µM with P. aeruginosa (PAO1). Moreover, in the series on sheep erythrocytes, the “Percent Hemolysis” value is 15.5%.
As to `CC[C@H](C)[C@H](NC(=O)[C@H](CCC(=O)O)NC(=O)[C@H](CCCNC(=N)N)NC(=O)[C@H](CCCNC(=N)N)NC(=O)[C@H](CC(C)C)NC(=O)[C@H](Cc1ccc(O)cc1)NC(=O)[C@H](CCCCN)NC(=O)[C@H](C)NC(=O)[C@@H](NC(=O)[C@@H](NC(=O)[C@H](CCC(N)=O)NC(=O)[C@H](CCCNC(=N)N)NC(=O)CNC(=O)[C@H](C)N)[C@@H](C)O)[C@@H](C)CC)C(=O)N[C@@H](CCCNC(=N)N)C(=O)N[C@@H](CCCCN)C(=O)N[C@@H](CCCNC(=N)N)C(=O)NCC(=O)N[C@@H](CCCNC(=N)N)C(=O)N[C@@H](CCCCN)C(=O)N[C@@H](Cc1c[nH]c2ccccc12)C(=O)N[C@H](C(=O)N[C@H](C(=O)N[C@@H](C)C(=O)N[C@@H](Cc1c[nH]c2ccccc12)C(=O)O)[C@@H](C)CC)C(C)C` [Syn-sordellicin-50] (H-AGRQTIAKYLRREIRKRGRKWVIAW-OH; N-terminus and C-terminus assumed), the MBC in the series on S. aureus (USA300) was more than 128 µM; in the series on E. coli (BL21), 1 µM; in the series with S. pyogenes (M1) it was 2 µM; in the series with P. aeruginosa (PAO1), 16 µM. The MIC is more than 128 µM in the series on S. aureus (USA300), 1 µM in the series on E. coli (BL21), 2 µM in the series with S. pyogenes (M1) and 8 µM in the series with P. aeruginosa (PAO1). Also, the “Percent Hemolysis” value with sheep erythrocytes is on record as 11.5%.
